Results: US11117892B2, “Pyrrolo-pyridine derivative compound, method for preparing same, and pharmaceutical composition containing same as active ingredient for prevention or treatment of protein kinase-related diseases” (DAEGU-GYEONGBUK MEDICAL INNOVATION FOUNDATION, priority 2017, dated 2021)

What was measured:
Assay in all cases: scanMAX Kinase assay panel
Format in all cases: binding
Details in all cases: read-out: % control
PIK3CA = PIK3CA (Homo sapiens (Human), UniProt P42336)
Method in brief: (§1)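 Panel: scanMAX. Metric: % control. The 100% anchor is DMSO and the 0% anchor is the positive control.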

[1] = target: ABL1(F317L)-nonphosphorylated (Homo sapiens (Human), UniProt P00519, F317L)
Method in brief: as §1

LATS1 = LATS1 (Homo sapiens (Human), UniProt O95835)
Method in brief: as §1

WNK1 = WNK1 (Homo sapiens (Human), UniProt Q9H4A3)
Method in brief: as §1

RAF1 = RAF1 (Homo sapiens (Human), UniProt P04049)
Method in brief: as §1

TIE1 = TIE1 (Homo sapiens (Human), UniProt P35590)
Method in brief: as §1

CDK4-cyclinD3 = CDK4-cyclinD3 (Homo sapiens (Human), UniProt P11802)
Method in brief: as §1

CAMK2A = CAMK2A (Homo sapiens (Human), UniProt Q9UQM7)
Method in brief: as §1

BRAF = BRAF (Homo sapiens (Human), UniProt P15056)
Method in brief: as §1

[2] = target: RSK2(Kin.Dom.1-N-terminal) (Homo sapiens (Human), UniProt P51812)
Sequence of RSK2(Kin.Dom.1-N-terminal) (P51812 68-327): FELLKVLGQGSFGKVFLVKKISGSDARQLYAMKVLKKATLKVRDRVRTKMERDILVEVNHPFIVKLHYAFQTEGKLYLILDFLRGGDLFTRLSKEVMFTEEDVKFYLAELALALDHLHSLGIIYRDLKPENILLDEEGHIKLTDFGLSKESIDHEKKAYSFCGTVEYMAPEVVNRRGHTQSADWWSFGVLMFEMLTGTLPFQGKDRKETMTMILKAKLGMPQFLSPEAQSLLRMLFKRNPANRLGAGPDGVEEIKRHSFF
Method in brief: as §1

MAP4K2 = MAP4K2 (Homo sapiens (Human), UniProt Q12851)
Sequence of MAP4K2 (Q12851 whole entry): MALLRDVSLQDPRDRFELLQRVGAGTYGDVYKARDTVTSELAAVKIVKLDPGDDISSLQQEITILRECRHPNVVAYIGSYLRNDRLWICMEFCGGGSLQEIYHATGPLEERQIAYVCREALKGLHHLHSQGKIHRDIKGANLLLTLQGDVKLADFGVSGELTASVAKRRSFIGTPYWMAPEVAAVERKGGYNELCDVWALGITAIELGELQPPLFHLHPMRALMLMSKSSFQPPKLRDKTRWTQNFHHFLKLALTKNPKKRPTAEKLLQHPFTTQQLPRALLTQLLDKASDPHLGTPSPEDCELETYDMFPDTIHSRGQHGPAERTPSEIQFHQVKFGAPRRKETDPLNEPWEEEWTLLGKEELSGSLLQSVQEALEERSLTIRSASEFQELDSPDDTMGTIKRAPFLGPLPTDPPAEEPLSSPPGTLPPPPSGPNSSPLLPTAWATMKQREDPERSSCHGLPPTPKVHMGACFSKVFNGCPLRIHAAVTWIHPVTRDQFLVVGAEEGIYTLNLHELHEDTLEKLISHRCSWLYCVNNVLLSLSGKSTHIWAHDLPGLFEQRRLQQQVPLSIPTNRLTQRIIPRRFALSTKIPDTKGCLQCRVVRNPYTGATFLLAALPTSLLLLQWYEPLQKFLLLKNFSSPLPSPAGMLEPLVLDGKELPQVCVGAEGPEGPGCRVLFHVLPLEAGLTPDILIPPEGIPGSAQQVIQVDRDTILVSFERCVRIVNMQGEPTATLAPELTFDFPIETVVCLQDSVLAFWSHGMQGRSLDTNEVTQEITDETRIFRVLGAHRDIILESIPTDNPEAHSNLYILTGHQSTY
Method in brief: as §1

SgK110 = SgK110 (Homo sapiens (Human), UniProt P0C264)
Method in brief: as §1

FYN = FYN (Homo sapiens (Human), UniProt P06241)
Sequence of FYN (P06241 whole entry): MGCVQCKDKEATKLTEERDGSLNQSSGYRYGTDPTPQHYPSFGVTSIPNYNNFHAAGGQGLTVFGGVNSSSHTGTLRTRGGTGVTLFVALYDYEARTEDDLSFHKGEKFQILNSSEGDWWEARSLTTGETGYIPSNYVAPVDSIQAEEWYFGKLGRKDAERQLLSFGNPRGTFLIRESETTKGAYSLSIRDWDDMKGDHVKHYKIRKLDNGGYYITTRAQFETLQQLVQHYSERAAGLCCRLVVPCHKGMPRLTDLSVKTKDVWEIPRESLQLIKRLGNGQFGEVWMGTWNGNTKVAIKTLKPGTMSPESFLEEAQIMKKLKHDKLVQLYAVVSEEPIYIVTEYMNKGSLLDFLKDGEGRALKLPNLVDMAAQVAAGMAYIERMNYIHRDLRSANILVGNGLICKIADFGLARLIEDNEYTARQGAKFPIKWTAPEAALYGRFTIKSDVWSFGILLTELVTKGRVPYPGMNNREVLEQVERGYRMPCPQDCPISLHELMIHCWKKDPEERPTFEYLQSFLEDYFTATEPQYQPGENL
Method in brief: as §1

QSK = QSK (Homo sapiens (Human), UniProt Q9Y2K2)
Sequence of QSK (Q9Y2K2 whole entry): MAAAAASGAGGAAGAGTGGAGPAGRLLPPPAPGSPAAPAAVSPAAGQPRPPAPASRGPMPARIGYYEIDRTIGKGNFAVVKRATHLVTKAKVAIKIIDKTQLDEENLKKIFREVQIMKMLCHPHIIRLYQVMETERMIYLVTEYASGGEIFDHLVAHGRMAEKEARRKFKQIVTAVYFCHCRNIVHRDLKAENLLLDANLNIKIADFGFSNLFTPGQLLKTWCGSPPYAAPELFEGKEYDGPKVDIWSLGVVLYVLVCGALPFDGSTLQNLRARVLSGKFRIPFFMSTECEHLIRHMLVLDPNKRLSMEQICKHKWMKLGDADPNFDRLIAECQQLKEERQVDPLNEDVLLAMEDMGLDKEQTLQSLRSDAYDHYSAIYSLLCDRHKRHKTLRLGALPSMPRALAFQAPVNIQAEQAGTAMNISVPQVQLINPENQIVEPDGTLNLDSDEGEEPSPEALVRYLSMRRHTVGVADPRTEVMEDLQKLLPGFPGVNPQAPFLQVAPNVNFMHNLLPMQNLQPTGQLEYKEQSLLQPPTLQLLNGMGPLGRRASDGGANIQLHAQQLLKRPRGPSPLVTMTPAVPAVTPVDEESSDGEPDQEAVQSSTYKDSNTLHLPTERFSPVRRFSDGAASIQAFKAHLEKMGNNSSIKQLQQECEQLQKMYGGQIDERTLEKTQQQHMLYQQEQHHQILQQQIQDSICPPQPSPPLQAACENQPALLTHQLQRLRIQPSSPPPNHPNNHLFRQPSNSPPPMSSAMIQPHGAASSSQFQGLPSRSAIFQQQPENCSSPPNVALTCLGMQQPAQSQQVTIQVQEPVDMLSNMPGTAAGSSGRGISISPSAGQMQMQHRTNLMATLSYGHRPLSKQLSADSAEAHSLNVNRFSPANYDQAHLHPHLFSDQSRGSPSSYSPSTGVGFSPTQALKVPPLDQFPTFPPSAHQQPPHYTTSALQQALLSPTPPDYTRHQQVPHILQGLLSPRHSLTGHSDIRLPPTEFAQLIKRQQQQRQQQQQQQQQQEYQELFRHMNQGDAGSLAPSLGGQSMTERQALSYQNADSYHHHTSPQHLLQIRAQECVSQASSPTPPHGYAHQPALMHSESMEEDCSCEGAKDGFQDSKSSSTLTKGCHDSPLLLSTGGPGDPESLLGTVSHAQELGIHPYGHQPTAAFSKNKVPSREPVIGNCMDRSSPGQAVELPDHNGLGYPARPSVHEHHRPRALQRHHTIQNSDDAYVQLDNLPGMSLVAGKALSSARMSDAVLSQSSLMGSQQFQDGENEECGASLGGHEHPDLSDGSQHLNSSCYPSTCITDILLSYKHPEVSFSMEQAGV
Method in brief: as §1

PIK3CA(H1047L) = PIK3CA(H1047L) (Homo sapiens (Human), UniProt P42336, H1047L)
Sequence of PIK3CA(H1047L) (P42336 whole entry H1047L): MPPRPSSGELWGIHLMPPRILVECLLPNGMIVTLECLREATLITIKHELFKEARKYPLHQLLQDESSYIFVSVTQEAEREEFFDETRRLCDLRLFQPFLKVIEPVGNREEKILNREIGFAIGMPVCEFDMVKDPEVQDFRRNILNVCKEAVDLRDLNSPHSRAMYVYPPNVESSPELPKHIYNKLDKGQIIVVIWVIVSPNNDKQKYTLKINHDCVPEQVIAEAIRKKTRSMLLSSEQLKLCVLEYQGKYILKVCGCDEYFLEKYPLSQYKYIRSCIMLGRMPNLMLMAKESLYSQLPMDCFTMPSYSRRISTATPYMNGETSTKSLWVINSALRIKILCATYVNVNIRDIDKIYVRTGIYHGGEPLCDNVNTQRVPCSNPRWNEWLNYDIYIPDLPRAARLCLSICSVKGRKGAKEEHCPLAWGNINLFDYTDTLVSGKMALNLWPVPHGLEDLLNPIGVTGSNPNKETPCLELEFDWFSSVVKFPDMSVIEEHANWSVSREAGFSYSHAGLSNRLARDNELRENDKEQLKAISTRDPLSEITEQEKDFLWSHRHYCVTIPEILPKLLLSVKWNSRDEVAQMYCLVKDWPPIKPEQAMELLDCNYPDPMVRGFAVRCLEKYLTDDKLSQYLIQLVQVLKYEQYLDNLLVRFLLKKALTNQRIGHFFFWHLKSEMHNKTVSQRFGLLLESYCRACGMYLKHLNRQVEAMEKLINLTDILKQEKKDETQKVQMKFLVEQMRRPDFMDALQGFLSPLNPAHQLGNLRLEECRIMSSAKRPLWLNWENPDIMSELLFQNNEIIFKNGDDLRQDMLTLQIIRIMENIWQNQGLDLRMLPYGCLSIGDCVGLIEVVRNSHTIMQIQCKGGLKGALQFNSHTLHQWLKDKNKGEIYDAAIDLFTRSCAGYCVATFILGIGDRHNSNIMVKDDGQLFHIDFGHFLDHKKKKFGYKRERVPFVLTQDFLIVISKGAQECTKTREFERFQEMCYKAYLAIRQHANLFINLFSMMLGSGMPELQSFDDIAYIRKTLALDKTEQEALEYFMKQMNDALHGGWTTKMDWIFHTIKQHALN
Method in brief: as §1

EPHA7 = EPHA7 (Homo sapiens (Human), UniProt Q15375)
Method in brief: as §1

PLK2 = PLK2 (Homo sapiens (Human), UniProt Q9NYY3)
Method in brief: as §1

EIF2AK1 = EIF2AK1 (Homo sapiens (Human), UniProt Q9BQI3)
Method in brief: as §1

PAK2 = PAK2 (Homo sapiens (Human), UniProt Q13177)
Method in brief: as §1

SRPK3 = SRPK3 (Homo sapiens (Human), UniProt Q9UPE1)
Method in brief: as §1

TEC = TEC (Homo sapiens (Human), UniProt P42680)
Method in brief: as §1

PKAC-alpha = PKAC-alpha (Homo sapiens (Human), UniProt P17612)
Method in brief: as §1

FGFR3(G697C) = FGFR3(G697C) (Homo sapiens (Human), UniProt P22607, G697C)
Method in brief: as §1

EPHB4 = EPHB4 (Homo sapiens (Human), UniProt P54760)
Method in brief: as §1

DCAMKL3 = DCAMKL3 (Homo sapiens (Human), UniProt Q9C098)
Method in brief: as §1

ARK5 = ARK5 (Homo sapiens (Human), UniProt O60285)
Method in brief: as §1

FGFR3 = FGFR3 (Homo sapiens (Human), UniProt P22607)
Method in brief: as §1

TRKB = TRKB (Homo sapiens (Human), UniProt Q16620)
Sequence of TRKB (Q16620 32-822): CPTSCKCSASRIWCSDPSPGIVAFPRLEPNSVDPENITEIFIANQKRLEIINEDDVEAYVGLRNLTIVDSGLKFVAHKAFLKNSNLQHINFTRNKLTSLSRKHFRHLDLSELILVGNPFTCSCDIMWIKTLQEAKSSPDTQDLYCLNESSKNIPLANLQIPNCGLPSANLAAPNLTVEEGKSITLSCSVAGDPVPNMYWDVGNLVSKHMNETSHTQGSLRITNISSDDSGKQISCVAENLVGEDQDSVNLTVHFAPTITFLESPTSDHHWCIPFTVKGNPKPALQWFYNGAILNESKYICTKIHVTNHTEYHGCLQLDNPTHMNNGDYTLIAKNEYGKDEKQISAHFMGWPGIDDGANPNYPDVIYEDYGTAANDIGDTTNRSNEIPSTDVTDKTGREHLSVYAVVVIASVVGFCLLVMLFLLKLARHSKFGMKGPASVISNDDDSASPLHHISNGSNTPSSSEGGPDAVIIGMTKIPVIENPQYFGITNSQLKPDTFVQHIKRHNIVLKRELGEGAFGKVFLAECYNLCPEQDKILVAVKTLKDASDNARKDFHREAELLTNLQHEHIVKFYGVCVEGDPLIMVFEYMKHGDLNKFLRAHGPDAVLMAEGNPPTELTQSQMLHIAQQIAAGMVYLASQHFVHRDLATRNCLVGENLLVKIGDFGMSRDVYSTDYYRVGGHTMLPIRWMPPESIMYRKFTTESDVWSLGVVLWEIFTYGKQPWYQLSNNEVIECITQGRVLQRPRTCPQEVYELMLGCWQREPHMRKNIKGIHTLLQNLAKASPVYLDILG
Method in brief: as §1

NDR2 = NDR2 (Homo sapiens (Human), UniProt Q9Y2H1)
Method in brief: as §1

LZK = LZK (Homo sapiens (Human), UniProt O43283)
Method in brief: as §1

KIT = KIT (Homo sapiens (Human), UniProt P10721)
Method in brief: as §1

FLT3(R834Q) = FLT3(R834Q) (Homo sapiens (Human), UniProt P36888, R834Q)
Method in brief: as §1

NEK1 = NEK1 (Homo sapiens (Human), UniProt Q96PY6)
Method in brief: as §1

MAP4K4 = MAP4K4 (Homo sapiens (Human), UniProt O95819)
Method in brief: as §1

TNIK = TNIK (Homo sapiens (Human), UniProt Q9UKE5)
Method in brief: as §1

CASK = CASK (Homo sapiens (Human), UniProt O14936)
Method in brief: as §1

EGFR(L858R, T790M) = EGFR(L858R, T790M) (Homo sapiens (Human), UniProt P00533, L858R/T790M)
Method in brief: as §1

PIK3CA(E545A) = PIK3CA(E545A) (Homo sapiens (Human), UniProt P42336, E545A)
Sequence of PIK3CA(E545A) (P42336 whole entry E545A): as the sequence (P42336 whole entry H1047L) above, with E545A, L1047H counted along it
Method in brief: as §1

PRKCI = PRKCI (Homo sapiens (Human), UniProt P41743)
Method in brief: as §1

Sequence of PIK3CA (P42336 whole entry): as the sequence (P42336 whole entry H1047L) above, with L1047H counted along it

Structure (SMILES) | remaining binding at 1 µM (PIK3CA) [%] | remaining binding at 1 µM [1] [%] | remaining binding at 1 µM (LATS1) [%] | remaining binding at 1 µM (WNK1) [%] | remaining binding at 1 µM (RAF1) [%] | remaining binding at 1 µM (TIE1) [%] | remaining binding at 1 µM (CDK4-cyclinD3) [%] | remaining binding at 1 µM (CAMK2A) [%] | remaining binding at 1 µM (BRAF) [%] | remaining binding at 1 µM [2] [%] | remaining binding at 1 µM (MAP4K2) [%] | remaining binding at 1 µM (SgK110) [%] | remaining binding at 1 µM (FYN) [%] | remaining binding at 1 µM (QSK) [%] | remaining binding at 1 µM (PIK3CA(H1047L)) [%] | remaining binding at 1 µM (EPHA7) [%] | remaining binding at 1 µM (PLK2) [%] | remaining binding at 1 µM (EIF2AK1) [%] | remaining binding at 1 µM (PAK2) [%] | remaining binding at 1 µM (SRPK3) [%] | further results
CCNc1cc(Nc2ccc(C(=O)N3CCC(N4CCOCC4)CC3)cc2OC)nc2[nH]cc(C#N)c12 [Example 18, 4-(ethylamino)-6-((2-methoxy-4-(4-morpholinopiperidine-1-carbonyl)phenyl)amino)-1H-pyrrolo[2,3-b]pyridine-3-carbonitrile] | 100 | 95 | 97 | 93 | 97 | 88 | 100 | 72 | 83 | 78 | 61 | 100 | 78 | 92 | 85 | 94 | 81 | 92 | 82 | 96 | remaining binding at 1 µM (TEC): 100%; remaining binding at 1 µM (PKAC-alpha): 70%; remaining binding at 1 µM (FGFR3(G697C)): 88%; remaining binding at 1 µM (EPHB4): 100%; remaining binding at 1 µM (DCAMKL3): 84%; remaining binding at 1 µM (ARK5): 94%; remaining binding at 1 µM (FGFR3): 93%; remaining binding at 1 µM (TRKB): 100%; remaining binding at 1 µM (NDR2): 95%; remaining binding at 1 µM (LZK): 100%; remaining binding at 1 µM (KIT): 49%; remaining binding at 1 µM (FLT3(R834Q)): 92%; remaining binding at 1 µM (NEK1): 100%; remaining binding at 1 µM (MAP4K4): 100%; remaining binding at 1 µM (TNIK): 89%; remaining binding at 1 µM (CASK): 76%; remaining binding at 1 µM (EGFR(L858R, T790M)): 81%; remaining binding at 1 µM (PIK3CA(E545A)): 100%; remaining binding at 1 µM (PRKCI): 76%
CCNc1cc(Nc2ccc(C(=O)N3CCC(N4CCOCC4)CC3)cc2OC)nc2[nH]cc(C(F)(F)F)c12 [Example 57, (4-((4-(ethylamino)-3-(trifluoromethyl)-1H-pyrrolo[2,3-b]pyridin-6-yl)amino)-3-methoxyphenyl) (4-morpholinopiperidin-1-yl)methanone] | 87 | 86 | 94 | 100 | 72 | 100 | 100 | 72 | 98 | 96 | 100 | 96 | 87 | 87 | 100 | 100 | 90 | 99 | 40 | 100 | remaining binding at 1 µM (TEC): 92%; remaining binding at 1 µM (PKAC-alpha): 100%; remaining binding at 1 µM (FGFR3(G697C)): 78%; remaining binding at 1 µM (EPHB4): 88%; remaining binding at 1 µM (DCAMKL3): 88%; remaining binding at 1 µM (ARK5): 94%; remaining binding at 1 µM (FGFR3): 94%; remaining binding at 1 µM (TRKB): 100%; remaining binding at 1 µM (NDR2): 80%; remaining binding at 1 µM (LZK): 100%; remaining binding at 1 µM (KIT): 91%; remaining binding at 1 µM (FLT3(R834Q)): 100%; remaining binding at 1 µM (NEK1): 81%; remaining binding at 1 µM (MAP4K4): 100%; remaining binding at 1 µM (TNIK): 94%; remaining binding at 1 µM (CASK): 88%; remaining binding at 1 µM (EGFR(L858R, T790M)): 73%; remaining binding at 1 µM (PIK3CA(E545A)): 77%; remaining binding at 1 µM (PRKCI): 63%
